Measurements as given in PMC5218480 (PLoS ONE, 2017).

Tested on: MV-4-11 cells
Assay: Gene expression microarray analysis (Affymetrix PrimeView) and GSEA
Assay type: cell-based, human
Design: RFU PODN (11730768_x_at) / Fold change /veh PODN (11730768_x_at) / RFU LINC00158 (11744669_a_at) / Fold change /veh LINC00158 (11744669_a_at) / RFU DUSP10 (11751237_a_at) / Fold change /veh DUSP10 (11751237_a_at) / RFU ID3 (11757404_x_at) / Fold change /veh ID3 (11757404_x_at) / RFU PLEKHG5 (11737974_s_at) / Fold change /veh PLEKHG5 (11737974_s_at) / RFU LRRC4B (11730491_at) / Fold change /veh LRRC4B (11730491_at) / RFU GIMAP4 (11747438_a_at) / Fold change /veh GIMAP4 (11747438_a_at) / RFU KRT8 (11758183_x_at) / Fold change /veh KRT8 (11758183_x_at) / RFU CNN1 (11734310_a_at) / Fold change /veh CNN1 (11734310_a_at) / RFU VPS37D (11726825_at) / Fold change /veh VPS37D (11726825_at) / RFU C10orf10 (11716522_x_at) / Fold change /veh C10orf10 (11716522_x_at) / RFU KIR2DL2 /// KIR2DL4 /// KIR2DL5A /// KIR2DL5B /// KIR2DS1 /// KIR2DS2 /// KIR2DS3 /// KIR2DS4 /// KIR3DL3 /// KIR3DL3 /// KIR3DS1 (11738374_at) / Fold change /veh KIR2DL2 /// KIR2DL4 /// KIR2DL5A /// KIR2DL5B /// KIR2DS1 /// KIR2DS2 /// KIR2DS3 /// KIR2DS4 /// KIR3DL3 /// KIR3DL3 /// KIR3DS1 (11738374_at) / RFU C1QL1 (11718748_at) / Fold change /veh C1QL1 (11718748_at) / RFU TMPRSS4 (11747572_a_at) / Fold change /veh TMPRSS4 (11747572_a_at) / RFU HAMP (11756126_x_at) / Fold change /veh HAMP (11756126_x_at) / RFU RNFT2 (11725882_a_at) / Fold change /veh RNFT2 (11725882_a_at) / RFU NR4A2 (11747474_a_at) / Fold change /veh NR4A2 (11747474_a_at) / RFU ABCC12 (11746883_a_at) / Fold change /veh ABCC12 (11746883_a_at) / RFU TMEM136 (11760407_x_at) / Fold change /veh TMEM136 (11760407_x_at) / RFU CLDN22 /// WWC2 (11732394_at) / Fold change /veh CLDN22 /// WWC2 (11732394_at) / RFU HLA-DPB1 (11760878_x_at) / Fold change /veh HLA-DPB1 (11760878_x_at) / RFU SPINT1 (11716480_a_at) / Fold change /veh SPINT1 (11716480_a_at) / RFU GAP43 (11754022_s_at) / Fold change /veh GAP43 (11754022_s_at) / RFU A4GNT (11735810_at) / Fold change /veh A4GNT (11735810_at) / RFU PRB3 (11715151_x_at) / Fold change /veh PRB3 (11715151_x_at) / RFU TUBB4B (11761932_at) / Fold change /veh TUBB4B (11761932_at) / RFU CAPN14 (11732068_a_at) / Fold change /veh CAPN14 (11732068_a_at) / RFU TMCC2 (11721928_a_at) / Fold change /veh TMCC2 (11721928_a_at) / RFU IRGQ (11745062_a_at) / Fold change /veh IRGQ (11745062_a_at) / RFU FAM174B (11720279_a_at) / Fold change /veh FAM174B (11720279_a_at) / RFU TMPRSS4 (11748680_a_at) / Fold change /veh TMPRSS4 (11748680_a_at) / RFU FAM212B (11763350_a_at) / Fold change /veh FAM212B (11763350_a_at) / RFU PLEKHG5 (11743358_a_at) / Fold change /veh PLEKHG5 (11743358_a_at) / RFU ZSCAN30 (11745921_a_at) / Fold change /veh ZSCAN30 (11745921_a_at) / RFU CMKLR1 (11741424_a_at) / Fold change /veh CMKLR1 (11741424_a_at) / RFU LOC101060620 /// MAPK8IP1 (11723275_at) / Fold change /veh LOC101060620 /// MAPK8IP1 (11723275_at) / RFU SPTSSB (11747773_x_at) / Fold change /veh SPTSSB (11747773_x_at) / RFU PRSS12 (11739890_at) / Fold change /veh PRSS12 (11739890_at) / RFU BIN1 (11741810_x_at) / Fold change /veh BIN1 (11741810_x_at) / RFU WNT11 (11732464_a_at) / Fold change /veh WNT11 (11732464_a_at) / RFU C10orf10 (11716521_a_at) / Fold change /veh C10orf10 (11716521_a_at) / RFU C5orf56 (11738089_at) / Fold change /veh C5orf56 (11738089_at) / RFU CYB561 (11721691_x_at) / Fold change /veh CYB561 (11721691_x_at) / RFU ANKRD19P (11752326_a_at) / Fold change /veh ANKRD19P (11752326_a_at) / RFU OR2T12 /// OR2T33 /// OR2T8 (11738714_s_at) / Fold change /veh OR2T12 /// OR2T33 /// OR2T8 (11738714_s_at) / RFU VCAN (11748164_a_at) / Fold change /veh VCAN (11748164_a_at) / RFU JSRP1 (11732532_at) / Fold change /veh JSRP1 (11732532_at) / RFU KRTAP10-11 (11738290_x_at) / Fold change /veh KRTAP10-11 (11738290_x_at) / RFU MYO3A (11730013_a_at) / Fold change /veh MYO3A (11730013_a_at) / RFU EBF3 (11725865_a_at) / Fold change /veh EBF3 (11725865_a_at) / RFU CAMK2N1 (11719241_x_at) / Fold change /veh CAMK2N1 (11719241_x_at) / RFU C5orf56 (11738088_a_at) / Fold change /veh C5orf56 (11738088_a_at) / RFU OLFML3 (11715873_a_at) / Fold change /veh OLFML3 (11715873_a_at) / RFU LOC100653217 /// NTM (11731650_a_at) / Fold change /veh LOC100653217 /// NTM (11731650_a_at) / RFU MAPK11 (11762145_a_at) / Fold change /veh MAPK11 (11762145_a_at) / RFU FIZ1 (11724087_x_at) / Fold change /veh FIZ1 (11724087_x_at) / RFU OASL (11726364_x_at) / Fold change /veh OASL (11726364_x_at) / RFU SOX15 (11748057_x_at) / Fold change /veh SOX15 (11748057_x_at) / RFU CD79A (11719716_a_at) / Fold change /veh CD79A (11719716_a_at) / RFU HIST1H1D (11736915_at) / Fold change /veh HIST1H1D (11736915_at) / RFU CASKIN2 (11723855_a_at) / Fold change /veh CASKIN2 (11723855_a_at) / RFU LOC730098 (11760151_x_at) / Fold change /veh LOC730098 (11760151_x_at) / RFU OR4N2 (11742367_at) / Fold change /veh OR4N2 (11742367_at) / RFU PRRT2 (11749266_a_at) / Fold change /veh PRRT2 (11749266_a_at) / RFU SNX32 (11753110_a_at) / Fold change /veh SNX32 (11753110_a_at) / RFU CDHR5 (11726645_a_at) / Fold change /veh CDHR5 (11726645_a_at) / RFU RCAN1 (11760418_a_at) / Fold change /veh RCAN1 (11760418_a_at) / RFU FAM167A (11723789_a_at) / Fold change /veh FAM167A (11723789_a_at) / RFU FAM26E (11764081_at) / Fold change /veh FAM26E (11764081_at) / RFU ISYNA1 (11749810_s_at) / Fold change /veh ISYNA1 (11749810_s_at) / RFU ACY1 (11761880_at) / Fold change /veh ACY1 (11761880_at) / RFU 11764098_at / Fold change /veh 11764098_at / RFU SAMD14 (11745864_x_at) / Fold change /veh SAMD14 (11745864_x_at) / RFU NPB (11741838_a_at) / Fold change /veh NPB (11741838_a_at) / RFU TMPRSS6 (11731388_a_at) / Fold change /veh TMPRSS6 (11731388_a_at) / RFU KRTAP10-2 (11738614_at) / Fold change /veh KRTAP10-2 (11738614_at) / RFU ARHGAP8 /// PRR5-ARHGAP8 (11727945_x_at) / Fold change /veh ARHGAP8 /// PRR5-ARHGAP8 (11727945_x_at) / RFU KRTAP5-7 /// NADSYN1 (11734609_at) / Fold change /veh KRTAP5-7 /// NADSYN1 (11734609_at) / RFU RASL12 (11751679_a_at) / Fold change /veh RASL12 (11751679_a_at) / RFU CDKN2B (11736163_a_at) / Fold change /veh CDKN2B (11736163_a_at) / RFU PRF1 (11729649_at) / Fold change /veh PRF1 (11729649_at) / RFU, ZNF638 /// ZNF638-IT1 / Fold change vs veh, ZNF638 /// ZNF638-IT1 / RFU, PANK3 / Fold change vs veh, PANK3 / RFU, SH3YL1 / Fold change vs veh, SH3YL1 / RFU, ZEB2 / Fold change vs veh, ZEB2 / RFU, NRIP1 / Fold change vs veh, NRIP1 / RFU, PTTG1IP / Fold change vs veh, PTTG1IP / RFU, CAPN2 / Fold change vs veh, CAPN2 / RFU, MED14 / Fold change vs veh, MED14 / RFU, SNORA58 / Fold change vs veh, SNORA58 / RFU, C1orf63 / Fold change vs veh, C1orf63 / RFU, LRRFIP1 / Fold change vs veh, LRRFIP1 / RFU, NDUFAF7 / Fold change vs veh, NDUFAF7 / RFU, SLC12A2 / Fold change vs veh, SLC12A2 / RFU, IBTK / Fold change vs veh, IBTK / RFU, ESF1 / Fold change vs veh, ESF1 / Fold change vs veh, TMEM50B / RFU, TAOK1 / Fold change vs veh, TAOK1 / RFU, ACBD3 / Fold change vs veh, ACBD3 / RFU, TMA16 / Fold change vs veh, TMA16 / RFU, RWDD3 / Fold change vs veh, RWDD3 / RFU, BCAT1 / Fold change vs veh, BCAT1 / RFU, EDEM3 / Fold change vs veh, EDEM3 / RFU, TMEM33 / Fold change vs veh, TMEM33 / RFU, WDR75 / Fold change vs veh, WDR75 / RFU, AHCTF1 / Fold change vs veh, AHCTF1 / RFU, TFRC / Fold change vs veh, TFRC / RFU, ZDHHC17 / Fold change vs veh, ZDHHC17 / RFU, NOM1 / Fold change vs veh, NOM1 / RFU, ARL8B / Fold change vs veh, ARL8B / RFU, ZBTB11 / Fold change vs veh, ZBTB11 / RFU, TAMM41 / Fold change vs veh, TAMM41 / RFU, KIAA1704 /// LOC100996395 / Fold change vs veh, KIAA1704 /// LOC100996395 / RFU, ING1 / Fold change vs veh, ING1 / RFU, TRMT61B / Fold change vs veh, TRMT61B / RFU, FUBP3 / Fold change vs veh, FUBP3 / RFU, TP53 / Fold change vs veh, TP53 / RFU, TNKS2 / Fold change vs veh, TNKS2 / RFU, ZFP14 / Fold change vs veh, ZFP14 / RFU, ACTR2 / Fold change vs veh, ACTR2 / RFU, PPP3R1 / Fold change vs veh, PPP3R1 / RFU, PIK3R1 / Fold change vs veh, PIK3R1 / RFU, HNRNPA1 / Fold change vs veh, HNRNPA1 / RFU, RNF170 / Fold change vs veh, RNF170 / RFU, ZNF28 / Fold change vs veh, ZNF28 / RFU, RNGTT / Fold change vs veh, RNGTT / RFU, OGT / Fold change vs veh, OGT / RFU, BRD1 / Fold change vs veh, BRD1 / RFU, MARS / Fold change vs veh, MARS / RFU, ZNF655 / Fold change vs veh, ZNF655 / RFU, FAHD1 / Fold change vs veh, FAHD1 / RFU, BDP1 / Fold change vs veh, BDP1 / RFU, LRRCC1 / Fold change vs veh, LRRCC1 / RFU, ARID1A / Fold change vs veh, ARID1A / RFU, ZNF146 / Fold change vs veh, ZNF146 / RFU, ZNF330 / Fold change vs veh, ZNF330 / RFU, GPN3 / Fold change vs veh, GPN3 / RFU, C9orf123 / Fold change vs veh, C9orf123 / RFU, N4BP2L2 / Fold change vs veh, N4BP2L2 / RFU, ARFIP1 / Fold change vs veh, ARFIP1 / RFU, FAM179B / Fold change vs veh, FAM179B / RFU, BCL10 / Fold change vs veh, BCL10 / RFU, UHRF1BP1L / Fold change vs veh, UHRF1BP1L / RFU, BET1 / Fold change vs veh, BET1 / RFU, CNOT2 / Fold change vs veh, CNOT2 / RFU, ZNF268 / Fold change vs veh, ZNF268 / Fold change vs veh, ZNF507 / RFU, DGCR2 / Fold change vs veh, DGCR2 / RFU, WDSUB1 / Fold change vs veh, WDSUB1 / Fold change vs veh, HSP90B1 /// MIR3652 / RFU, ADSS / Fold change vs veh, ADSS / RFU, GK / Fold change vs veh, GK / RFU, ZNF148 / Fold change vs veh, ZNF148 / RFU, TAF9 / Fold change vs veh, TAF9 / RFU, SLC1A5 / Fold change vs veh, SLC1A5 / RFU, SLMO2 / Fold change vs veh, SLMO2 / RFU, ABCC4 / Fold change vs veh, ABCC4 / RFU, LOC101060439 /// RAP1B / Fold change vs veh, LOC101060439 /// RAP1B / RFU, RFX7 / Fold change vs veh, RFX7 / RFU, GTPBP10 / Fold change vs veh, GTPBP10 / RFU, CNEP1R1 / Fold change vs veh, CNEP1R1 / RFU, BIVM-ERCC5 /// ERCC5 / Fold change vs veh, BIVM-ERCC5 /// ERCC5 / RFU, ILF3 / Fold change vs veh, ILF3 / RFU 11762660_at / Fold change /veh 11762660_at / RFU VCAN (11757783_s_at) / Fold change /veh VCAN (11757783_s_at) / RFU DDX43 (11728927_at) / Fold change /veh DDX43 (11728927_at) / RFU KRT8 (11758188_x_at) / Fold change /veh KRT8 (11758188_x_at) / RFU NKD1 (11759106_at) / Fold change /veh NKD1 (11759106_at) / RFU SRD5A1 (11742802_a_at) / Fold change /veh SRD5A1 (11742802_a_at) / RFU TPSAB1 /// TPSB2 (11721975_s_at) / Fold change /veh TPSAB1 /// TPSB2 (11721975_s_at) / RFU GSTM3 (11746129_a_at) / Fold change /veh GSTM3 (11746129_a_at) / RFU IL23R (11737362_x_at) / Fold change /veh IL23R (11737362_x_at) / RFU TMEM51 (11727254_a_at) / Fold change /veh TMEM51 (11727254_a_at) / RFU PIWIL2 (11732686_x_at) / Fold change /veh PIWIL2 (11732686_x_at) / RFU ORM1 (11744905_x_at) / Fold change /veh ORM1 (11744905_x_at) / RFU CCDC152 (11743942_at) / Fold change /veh CCDC152 (11743942_at) / RFU ECM1 (11717891_a_at) / Fold change /veh ECM1 (11717891_a_at) / RFU IL23R (11748794_a_at) / Fold change /veh IL23R (11748794_a_at) / RFU TNFAIP8L3 (11732012_x_at) / Fold change /veh TNFAIP8L3 (11732012_x_at) / RFU MBOAT4 (11741988_at) / Fold change /veh MBOAT4 (11741988_at) / RFU 11764193_at / Fold change /veh 11764193_at / RFU TMEM53 (11763286_at) / Fold change /veh TMEM53 (11763286_at) / RFU MAGEB2 (11727129_at) / Fold change /veh MAGEB2 (11727129_at) / RFU TMEM200A (11744735_a_at) / Fold change /veh TMEM200A (11744735_a_at) / RFU CCDC152 (11751479_a_at) / Fold change /veh CCDC152 (11751479_a_at) / RFU FAM211A (11726209_a_at) / Fold change /veh FAM211A (11726209_a_at) / RFU RGS16 (11746705_a_at) / Fold change /veh RGS16 (11746705_a_at) / RFU VCAN (11755009_s_at) / Fold change /veh VCAN (11755009_s_at) / RFU RHOB (11743442_s_at) / Fold change /veh RHOB (11743442_s_at) / RFU RGS16 (11720943_a_at) / Fold change /veh RGS16 (11720943_a_at) / RFU RGS16 (11720944_at) / Fold change /veh RGS16 (11720944_at) / RFU, VPS4B / Fold change vs veh, VPS4B / RFU, CREB1 / Fold change vs veh, CREB1 / RFU, DNAJC13 / Fold change vs veh, DNAJC13 / RFU, GNAQ / Fold change vs veh, GNAQ / RFU, CDK5R1 / Fold change vs veh, CDK5R1 / RFU, ZRANB3 / Fold change vs veh, ZRANB3 / RFU, CUL4A / Fold change vs veh, CUL4A / RFU, CCNY / Fold change vs veh, CCNY / RFU, UFL1 / Fold change vs veh, UFL1 / RFU, COG3 / Fold change vs veh, COG3 / RFU, DIAPH2 / Fold change vs veh, DIAPH2 / RFU, SKA2 / Fold change vs veh, SKA2 / RFU, AFF3 / Fold change vs veh, AFF3 / RFU, LMF1 / Fold change vs veh, LMF1 / RFU, IPO11 / Fold change vs veh, IPO11 / RFU, DFFB / Fold change vs veh, DFFB / RFU, FOXP1 / Fold change vs veh, FOXP1 / RFU, CARD8 / Fold change vs veh, CARD8 / RFU, STRN3 / Fold change vs veh, STRN3 / RFU, ADK / Fold change vs veh, ADK / RFU, RASSF2 / Fold change vs veh, RASSF2 / RFU, WIPF1 / Fold change vs veh, WIPF1 / RFU, LARP1B / Fold change vs veh, LARP1B / RFU, RASA1 / Fold change vs veh, RASA1 / RFU, RB1 / Fold change vs veh, RB1 / RFU, PPFIA1 / Fold change vs veh, PPFIA1 / RFU, MAT2A / Fold change vs veh, MAT2A / RFU, CCT5 / Fold change vs veh, CCT5 / RFU, WDR92 / Fold change vs veh, WDR92 / RFU, CUX1 / Fold change vs veh, CUX1 / RFU, TTC7A / Fold change vs veh, TTC7A / RFU, TMEM135 / Fold change vs veh, TMEM135 / RFU, DEPTOR / Fold change vs veh, DEPTOR / RFU, CPM / Fold change vs veh, CPM / RFU, DNAJB6 / Fold change vs veh, DNAJB6 / RFU, CACNA2D3 / Fold change vs veh, CACNA2D3 / RFU, DTX4 / Fold change vs veh, DTX4 / RFU, TFCP2 / Fold change vs veh, TFCP2 / RFU, GMCL1 /// GMCL1P1 / Fold change vs veh, GMCL1 /// GMCL1P1 / RFU, AEBP2 / Fold change vs veh, AEBP2 / RFU, SNHG1 /// SNORD22 /// SNORD25 /// SNORD26 /// SNORD27 /// SNORD28 /// SNORD29 /// SNORD31 / Fold change vs veh, SNHG1 /// SNORD22 /// SNORD25 /// SNORD26 /// SNORD27 /// SNORD28 /// SNORD29 /// SNORD31 / Fold change (Aza/veh), C12orf56 (ProbeSet 11735607_a_at) / Fold change (ACY-1035/veh), C12orf56 (ProbeSet 11735607_a_at) / Fold change (Aza/veh), FGFR1OP (ProbeSet 11751329_s_at) / Fold change (ACY-1035/veh), FGFR1OP (ProbeSet 11751329_s_at) / Fold change (Aza/veh), VPS36 (ProbeSet 11739960_a_at) / Fold change (ACY-1035/veh), VPS36 (ProbeSet 11739960_a_at) / RFU SYPL1 (11715823_x_at) / Fold change /veh SYPL1 (11715823_x_at) / RFU IGFBP7 (11715501_s_at) / Fold change /veh IGFBP7 (11715501_s_at) / RFU REEP3 (11722064_at) / Fold change /veh REEP3 (11722064_at) / RFU IGLL1 (11728026_x_at) / Fold change /veh IGLL1 (11728026_x_at): dose or concentration left out as unconfirmed
Settings: MV-4-11 cells, 48 hours

Nc1ccc(-c2cccs2)cc1NC(=O)c1ccc2c(c1)cc(C1CC1)n2CCN1CCOCC1 [ACY-1035]
RFU GSTM3 (11746129_a_at): 10.76 RFU
